Reference: patent US20250282746A1, “HALOGEN-SUBSTITUTED ISOINDOLINE COMPOUND AND USE THEREOF” (CHENGDU FENDI PHARMACEUTICAL CO., LTD., priority 2022, published 2025)

Tests used:
MV-4-11 cells = test: Antiproliferative activity against MV-4-11 cells (CellTiter-Glo, 72 h); format: cell-based; settings: Homo sapiens, MV4-11; MV-4-11 cells, 72 h; read-out: Antiproliferative activity IC50
Experimental: MV411 cells in the logarithmic growth phase were diluted in a medium (RPMI+10% FBS) and plated at 5,000 cells/well in 96-well whole black plates (WHB) with 50 μL/well. After plating, the plates were incubated in an incubator at 5% CO2 and 37° C. for 24 h before the compounds were added. The compounds were prepared into a 10 mM stock solution in DMSO and diluted in a culture medium to the desired concentrations (a final DMSO concentration of 0.2%). […] The plates were incubated at 5% CO2 and 37° C. for 72 h. After the incubation was complete, the plates were equilibrated at room temperature for 30 min. CellTiter-Glo® Reagent (Promega G7573) was added at 100 μL/well. The plates were shaken for 12 min on a microplate shaker. The luminescence value was measured at room temperature by the GloMax navigator (Promega GM2010).

GSPT1 protein = biological target: T1, GSPT1 protein (Homo sapiens, UniProt P15170); test: Degradation of GSPT1 protein in NB-4 cells (Western blot); format: cell-based; settings: NB-4 cells, compound 1 μM, 6 h; for inhibition at 1 µM: read-out: GSPT1 degradation
T1 construct: The whole cell lysate was prepared using a RIPA lysis buffer; endogenous in cells; host or cells: NB-4 cells
T1 sequence (P15170 whole entry): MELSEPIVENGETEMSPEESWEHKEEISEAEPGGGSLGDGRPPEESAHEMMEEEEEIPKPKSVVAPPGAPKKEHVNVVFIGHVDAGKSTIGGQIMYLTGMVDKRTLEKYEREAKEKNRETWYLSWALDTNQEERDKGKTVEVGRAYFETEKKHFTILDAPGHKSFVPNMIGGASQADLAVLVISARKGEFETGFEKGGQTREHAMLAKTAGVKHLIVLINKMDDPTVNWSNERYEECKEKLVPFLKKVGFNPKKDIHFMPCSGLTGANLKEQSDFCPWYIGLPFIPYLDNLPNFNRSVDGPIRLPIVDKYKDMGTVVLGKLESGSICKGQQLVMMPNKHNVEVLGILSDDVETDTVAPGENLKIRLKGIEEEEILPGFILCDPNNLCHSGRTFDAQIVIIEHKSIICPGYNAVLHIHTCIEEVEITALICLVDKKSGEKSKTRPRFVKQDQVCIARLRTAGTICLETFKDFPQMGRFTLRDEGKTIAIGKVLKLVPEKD
Experimental: 150 μL of DMSO and the compounds (1 μM) were added, and the mixture was incubated in an incubator at 5% CO2 and 37° C. for 6 h. The cells were centrifuged, and the culture medium was discarded. PBS was added for washing and then discarded. The whole cell lysate was prepared using a RIPA lysis buffer containing a protease inhibitor cocktail and a phosphatase inhibitor, and incubated on ice for 30 min. The mixture was centrifuged, and the cell debris was discarded. The whole cell lysate supernatant was collected and transferred to a fresh EP tube. Samples were prepared using a loading buffer after a BCA protein assay. The samples were incubated in a metal bath at 100° C. for 10 min.
The samples were electrophoretically separated from proteins on a 4-20% precast gel (SDS-PAGE gel), transferred to a PVDF membrane, blocked with 5% NFDM/TBST for 1 h at room temperature, co-incubated overnight at 4° C. with the primary antibody, and co-incubated for 2 h at room temperature with the secondary antibody on the next day. The signals were detected on the […]™ imaging system.

Compound	IC50 (MV-4-11 cells) [nM]	inhibition at 1 µM (GSPT1 protein) [%]	GSPT1 degradation (GSPT1 protein)
CC(C)(C)OC(=O)NCc1ccc2c(c1F)CN(C1CCC(=O)NC1=O)C2=O (stereo not drawn) [FDAB-2]	> 1000	< 25	–
N#Cc1cc2c(cc1F)C(=O)N(C1CCC(=O)NC1=O)C2 (stereo not drawn) [FDAB-4]	> 1000	< 25	–
NCc1cc2c(cc1F)C(=O)N(C1CCC(=O)NC1=O)C2 (stereo not drawn) [FDAB-6]	10 to 100	50 to 80	–
CC(C)(C)OC(=O)NCc1cc(F)c2c(c1)CN(C1CCC(=O)NC1=O)C2=O (stereo not drawn) [FDAB-8]	> 1000	< 25	–
CC(C)(C)OC(=O)NCc1ccc2c(c1Cl)CN(C1CCC(=O)NC1=O)C2=O (stereo not drawn) [FDAB-11]	> 1000	< 25	–
O=C1CCC(N2Cc3cc(CNC(=O)c4ccc(Cl)cn4)c(F)cc3C2=O)C(=O)N1 (stereo not drawn) [FDAB-57]	–	–	D (D denotes a percentage of degradation less than 25%)
CC(C)(C)c1ccc(C(=O)NCc2ccc3c(c2F)CN(C2CCC(=O)NC2=O)C3=O)c(N)c1 (stereo not drawn) [FDAB-172]	< 1	–	–
O=C1CCC(N2Cc3c(ccc(CNC(=O)c4ccc(OCc5ccccc5)c(O)c4)c3F)C2=O)C(=O)N1 (stereo not drawn) [FDAB-179]	< 1	–	–
CC(CCC(=O)NCc1ccc2c(c1F)CN(C1CCC(=O)NC1=O)C2=O)(c1ccc(O)cc1)c1ccc(O)cc1 (stereo not drawn) [FDAB-180]	10 to 100	–	–
N[C@@H](CC(=O)NCc1ccc2c(c1F)CN(C1CCC(=O)NC1=O)C2=O)C(c1ccccc1)c1ccccc1 (stereo partly drawn) [FDAB-181]	1 to 10	–	–
NCCc1ccc(NC(=O)NCc2ccc3c(c2F)CN(C2CCC(=O)NC2=O)C3=O)cc1Cl (stereo not drawn) [FDAB-182]	1 to 10	–	–
O=C1CCC(N2Cc3c(ccc(CNC(=O)Nc4ccc(CCO)c(Cl)c4)c3F)C2=O)C(=O)N1 (stereo not drawn) [FDAB-183]	< 1	–	–
Nc1ccc(-c2ccc(C#CC(=O)NCc3ccc4c(c3F)CN(C3CCC(=O)NC3=O)C4=O)cc2)cc1 (stereo not drawn) [FDAB-184]	< 1	–	–
O=C1CCC(N2Cc3cc(CNC(=O)Nc4ccc(CCO)c(Cl)c4)ccc3C2=O)C(=O)N1 (stereo not drawn) [FDAB-185]	1 to 10	–	–
O=C(C#Cc1ccc(-c2ccc(O)cc2)cc1)NCc1ccc2c(c1F)CN(C1CCC(=O)NC1=O)C2=O (stereo not drawn) [FDAB-186]	< 1	–	–
O=C(C#Cc1ccc(-c2ccc(CCO)cc2)cc1)NCc1ccc2c(c1F)CN(C1CCC(=O)NC1=O)C2=O (stereo not drawn) [FDAB-187]	< 1	–	–
NCCc1ccc(-c2ccc(C#CC(=O)NCc3ccc4c(c3F)CN(C3CCC(=O)NC3=O)C4=O)cc2)cc1 (stereo not drawn) [FDAB-188]	1 to 10	–	–

Continued, in another order:

IC50 (MV-4-11 cells) [nM]	inhibition at 1 µM (GSPT1 protein) [%]	Compound	GSPT1 degradation (GSPT1 protein)
> 1000	< 25	N#Cc1ccc2c(c1F)CN(C1CCC(=O)NC1=O)C2=O (stereo not drawn) [FDAB-1]	–
> 1000	< 25	NCc1ccc2c(c1F)CN(C1CCC(=O)NC1=O)C2=O (stereo not drawn) [FDAB-3]	–
> 1000	< 25	CC(C)(C)OC(=O)NCc1cc2c(cc1F)C(=O)N(C1CCC(=O)NC1=O)C2 (stereo not drawn) [FDAB-5]	–
> 1000	< 25	N#Cc1cc(F)c2c(c1)CN(C1CCC(=O)NC1=O)C2=O (stereo not drawn) [FDAB-7]	–
> 1000	< 25	NCc1cc(F)c2c(c1)CN(C1CCC(=O)NC1=O)C2=O (stereo not drawn) [FDAB-9]	–
> 1000	< 25	N#Cc1ccc2c(c1Cl)CN(C1CCC(=O)NC1=O)C2=O (stereo not drawn) [FDAB-10]	–
> 1000	< 25	NCc1ccc2c(c1Cl)CN(C1CCC(=O)NC1=O)C2=O (stereo not drawn) [FDAB-12]	–
< 1	–	CC(C)(C)c1ccc(C(=O)NCc2ccc3c(c2F)CN(C2CCC(=O)NC2=O)C3=O)cc1O (stereo not drawn) [FDAB-173]	–
10 to 100	–	CC(C)(CN)c1ccc(C(=O)NCc2ccc3c(c2F)CN(C2CCC(=O)NC2=O)C3=O)cc1 (stereo not drawn) [FDAB-174]	–
< 1	–	NCc1ccc(-c2ccc(C(=O)NCc3ccc4c(c3F)CN(C3CCC(=O)NC3=O)C4=O)cc2)cc1 (stereo not drawn) [FDAB-175]	–
1 to 10	–	Nc1cc(-c2ccccc2)ccc1C(=O)NCc1ccc2c(c1F)CN(C1CCC(=O)NC1=O)C2=O (stereo not drawn) [FDAB-176]	–
< 1	–	Nc1ccc(-c2ccc(C(=O)NCc3ccc4c(c3F)CN(C3CCC(=O)NC3=O)C4=O)cc2)cc1 (stereo not drawn) [FDAB-177]	–
< 1	–	COc1cc(C(=O)NCc2ccc3c(c2F)CN(C2CCC(=O)NC2=O)C3=O)c(N)cc1OCc1ccccc1 (stereo not drawn) [FDAB-178]	–
